Assay results from PMC8544188 (Molecular Diversity, 2021).
“Also recorded” adds a separate entry of the source. One block for each compound: values may come before it.

How the values were obtained:
[1] = biological target: T1, α-glucosidase (Saccharomyces cerevisiae, UniProt P53341); test: Enzyme kinetic studies; type: biochemical; settings: Lineweaver–Burk plot: Km increased, Vmax unchanged
[2] = biological target: T1, α-glucosidase; test: α-glucosidase inhibition assay; type: biochemical

T1 sequence (P53341 whole entry): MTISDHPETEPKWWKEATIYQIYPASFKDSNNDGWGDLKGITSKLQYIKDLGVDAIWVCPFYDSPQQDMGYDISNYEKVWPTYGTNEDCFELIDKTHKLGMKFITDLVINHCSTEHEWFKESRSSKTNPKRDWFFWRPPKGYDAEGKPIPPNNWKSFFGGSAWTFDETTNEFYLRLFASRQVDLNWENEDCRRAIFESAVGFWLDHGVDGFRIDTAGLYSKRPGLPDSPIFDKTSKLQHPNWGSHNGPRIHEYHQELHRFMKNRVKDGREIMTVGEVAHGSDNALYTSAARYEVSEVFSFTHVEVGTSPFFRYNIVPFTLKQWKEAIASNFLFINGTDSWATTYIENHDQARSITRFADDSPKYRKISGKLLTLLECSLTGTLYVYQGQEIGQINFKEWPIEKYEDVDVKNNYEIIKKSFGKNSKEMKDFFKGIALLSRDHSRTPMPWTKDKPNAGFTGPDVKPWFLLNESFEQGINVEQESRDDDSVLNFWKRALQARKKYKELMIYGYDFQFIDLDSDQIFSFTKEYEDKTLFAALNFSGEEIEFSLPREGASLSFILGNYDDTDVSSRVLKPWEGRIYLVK

SMILES: COc1ccc(-c2[nH]c3c(c2CC#N)c(=O)oc2ccccc23)cc1 [5e, 2-(2-(4-methoxyphenyl)-4-oxo-1,4-dihydrochromeno[4,3-b]pyrrol-3-yl)acetonitrile]
mode of inhibition [1]: competitive inhibition; also recorded: competitive inhibitor

fold improvement in inhibitory potency compared to acarbose (positive control) ([2]; ratio of IC50 values versus acarbose): around fivefold
SMILES: N#CC(C(N)=O)c1c(-c2ccccc2)[nH]c2c1c(=O)oc1ccccc12 (stereo not shown) [4a, 2-cyano-2-(4-oxo-2-phenyl-1,4-dihydrochromeno[4,3-b]pyrrol-3-yl)acetamide]

SMILES: N#CCc1c(-c2ccccc2)[nH]c2c1c(=O)oc1ccc(Cl)cc12 [5b, 2-(8-chloro-4-oxo-2-phenyl-1,4-dihydrochromeno[4,3-b]pyrrol-3-yl)acetonitrile]
α-glucosidase inhibitory activity in words [2]: diminished the inhibitory activity completely

fold increase in potency compared to 5a ([2]; ratio of IC50 values versus 5a): around fivefold
SMILES: N#CCc1c(-c2ccc(Cl)cc2)[nH]c2c1c(=O)oc1ccccc12 [5d, 2-(2-(4-chlorophenyl)-4-oxo-1,4-dihydrochromeno[4,3-b]pyrrol-3-yl)acetonitrile]
